US20220089589A1, “SMALL MOLECULE DEGRADERS OF FKBP12 VIA RECRUITMENT OF VON HIPPEL-LINDAU E3 UBIQUITIN LIGASE (VHL) E3 UBIQUITIN LIGASE, AND USES IN dTAG SYSTEMS” (DANA-FARBER CANCER INSTITUTE, INC., priority 2019, published 2022)
Entries after “also recorded” stand apart in the source; their conditions may differ.

Key:
Format in all cases: cell-based
[1] = system: NIH/3T3 cells expressing FKBP12^F36V-KRAS^G12V; assay: Anti-proliferation in NIH/3T3 cells expressing FKBP12^F36V-KRAS^G12V by ATPlite assay; conditions: 0.00063-20 μM, 72 hrs, NIH/3T3 expressing FKBP12^F36V-KRAS^G12V
Method: (§1) NIH/3T3 cells, that were mock transduced (control) or stably expressing with FKBP12^F36V-KRAS^G12V, were plated in 384-well format, allowed to adhere overnight, and treated with various dTAG molecules from compound stock plates using a JANUS® Workstation pin tool for 72 hrs. To measure cell viability, ATPlite™ was added to wells for 15 minutes at room temperature and luminescence was measured on an EnVision™ 2104 Multilabel Plate Reader.

[2] = system: control NIH/3T3 cells; assay: Anti-proliferation in mock transduced (control) NIH/3T3 cells by ATPlite assay; conditions: 0.00063-20 μM, 72 hrs, at high doses
Method: as §1

[3] = system: LACZ-FKBP12^F36V; assay: Immunoblotting of PATU-8902 LACZ-FKBP12^F36V clone (Example 6); conditions: 50 or 500 nM, 4 hrs
Method: (§2) PATU-8902 LACZ-FKBP12^F36V clone was plated in 6-well format, allowed to adhere overnight, and treated with 50 nM and 500 nM dTAG molecules for 4 hrs. Following treatment, cells were lysed in RIPA buffer on ice for 60 minutes. Lysates were clarified by centrifugation at 20,000×g for 10 minutes at 4° C. Immunoblotting was performed to determine changes in protein levels with an Odyssey CLx Imager. The indicated antibodies were employed including HA (hemagglutinin) to monitor LACZ-FKBP12^F36V degradation and α-TUBULIN as a loading control.

[4] = system: FKBP12^F36V-KRAS^G12V; assay: Immunoblotting of PATU-8902 FKBP12^F36V-KRAS^G12V; KRAS^−/− clone (Example 8), HA; conditions: 50 or 500 nM, 4 hrs
Method: as §2, with “FKBP12^F36V-KRAS^G12V; KRAS^−/−” for “LACZ-FKBP12^F36V”, “HA” for “HA (hemagglutinin)”, “FKBP12^F36V-KRAS^G12V degradation, total and phosphorylated ERK to evaluate changes in ERK signaling, total and phosphorylated AKT to evaluate changes in AKT signaling” for “LACZ-FKBP12^F36V degradation”

[5] = system: pERK; assay: Immunoblotting of PATU-8902 FKBP12^F36V-KRAS^G12V; KRAS^−/− clone (Example 8), ERK signaling; conditions: 50 or 500 nM, 4 hrs
Method: as §2, with “FKBP12^F36V-KRAS^G12V; KRAS^−/−” for “LACZ-FKBP12^F36V”, “HA” for “HA (hemagglutinin)”, “FKBP12^F36V-KRAS^G12V degradation, total and phosphorylated ERK to evaluate changes in ERK signaling, total and phosphorylated AKT to evaluate changes in AKT signaling” for “LACZ-FKBP12^F36V degradation”

[6] = system: pAKT; assay: Immunoblotting of PATU-8902 FKBP12^F36V-KRAS^G12V; KRAS^−/− clone (Example 8), AKT signaling; conditions: 50 or 500 nM, 4 hrs
Method: as §2, with “FKBP12^F36V-KRAS^G12V; KRAS^−/−” for “LACZ-FKBP12^F36V”, “HA” for “HA (hemagglutinin)”, “FKBP12^F36V-KRAS^G12V degradation, total and phosphorylated ERK to evaluate changes in ERK signaling, total and phosphorylated AKT to evaluate changes in AKT signaling” for “LACZ-FKBP12^F36V degradation”

[7] = system: PATU-8902 FKBP12^F36V-KRAS^G12V; KRAS^−/− clone; assay: Anti-proliferation via CellTiter-Glo, PATU-8902 FKBP12^F36V-KRAS^G12V; KRAS^−/− clone (Example 12); conditions: 0.000063-2 μM, 72 hrs
Method: (§3) PATU-8902 LACZ-FKBP12^F36V or FKBP12^F36V-KRAS^G12V; KRAS^−/− clones were plated in 384-well format, allowed to adhere overnight, and treated with various dTAG molecules from compound stock plates using a JANUS® Workstation pin tool for 72 hrs. To measure cell viability, Cell Tilter-Glo® was added to wells for 15 minutes at r.t. and luminescence was measured on an EnVision™ 2104 Multilabel Plate Reader.

[8] = system: PATU-8902 FKBP12^F36V-KRAS^G12V; KRAS^−/− clone; assay: Cell transformation by growth in ultra-low attachment conditions, PATU-8902 FKBP12^F36V-KRAS^G12V; KRAS^−/− clone (Example 13); conditions: 0.000063-2 μM, 120 hrs
Method: as §3, with “format in ultra-low attachment conditions,” for “format,”, “form 3D-spheroids” for “adhere”, “120” for “72”, “transformation,” for “viability,”, “room temperature” for “r.t.”

[9] = system: PATU-8902 FKBP12^F36V-KRAS^G12V; KRAS^−/− clone; assay: Anti-proliferation via CellTiter-Glo, PATU-8902 FKBP12^F36V-KRAS^G12V; KRAS^−/− clone (Example 11); conditions: 0.00063-20 μM, 72 hrs
Method: as §3, with “CellTilter-Glo®” for “Cell Tilter-Glo®”

[10] = system: PATU-8902 LACZ-FKBP12^F36V clone; assay: Anti-proliferation via CellTiter-Glo, PATU-8902 LACZ-FKBP12^F36V control clone (Example 11); conditions: 0.00063-20 μM, 72 hrs
Method: as §3, with “CellTilter-Glo®” for “Cell Tilter-Glo®”

[11] = system: FKBP12^F36V-KRAS^G12V; assay: Immunoblotting of 293T^WT FKBP12^F36V-KRAS^G12V cells; conditions: 50 or 500 nM, 24 hrs
Method: as §2, with “293T^WT or 293T^VHL−/− FKBP12^F36V-KRAS^G12V cells were plated” for “PATU-8902 LACZ-FKBP12^F36V clone was plated”, “for 24” for “for 4”, “HA” for “HA (hemagglutinin)”, “monitor FKBP12^F36V-KRAS^G12V” for “monitor LACZ-FKBP12^F36V”

[12] = system: FKBP12^F36V-KRAS^G12V; assay: Immunoblotting of 293T^VHL−/− FKBP12^F36V-KRAS^G12V cells; conditions: 50 or 500 nM, 24 hrs
Method: as §2, with “293T^WT or 293T^VHL−/− FKBP12^F36V-KRAS^G12V cells were plated” for “PATU-8902 LACZ-FKBP12^F36V clone was plated”, “for 24” for “for 4”, “HA” for “HA (hemagglutinin)”, “monitor FKBP12^F36V-KRAS^G12V” for “monitor LACZ-FKBP12^F36V”

[13] = system: PATU-8902 LACZ-FKBP12^F36V clone; assay: Anti-proliferation via CellTiter-Glo, PATU-8902 LACZ-FKBP12^F36V control clone (Example 12); conditions: 0.000063-2 μM, 72 hrs
Method: as §3

[14] = system: PATU-8902 LACZ-FKBP12^F36V clone; assay: Cell transformation by growth in ultra-low attachment conditions, PATU-8902 LACZ-FKBP12^F36V control clone (Example 13); conditions: 0.000063-2 μM, 120 hrs
Method: as §3, with “format in ultra-low attachment conditions,” for “format,”, “form 3D-spheroids” for “adhere”, “120” for “72”, “transformation,” for “viability,”, “room temperature” for “r.t.”

[15] = system: FKBP12^F36V-GFP; assay: Immunoblotting of EWS502 FKBP12^F36V-GFP cells; conditions: dTAG-13 10-5000 nM, compound 1 50-5000 nM, 24 hrs
Method: (§4) EWS502 FKBP12^F36V-GFP and FKBP12^F36V-EWS/FLI; EWS/FLP^−/− cells were plated in 6-well format, allowed to adhere overnight, and treated with (10-5000 nM) dTAG-13 or (50-5000 nM) compound 1 for 24 hrs. Following treatment, cells were lysed in Cell Lysis Buffer (Cell Signaling Technology®) on ice for 60 minutes. Lysates were clarified by centrifugation at 20,000×g for 10 minutes at 4° C. Immunoblotting was performed to determine changes in protein levels upon incubation with the appropriate horseradish peroxidase-conjugated secondary antibodies. The indicated antibodies were employed including HA to monitor FKBP12^F36V-GFP or FKBP12^F36V-EWS/FLI degradation and Vinculin as a loading control.

[16] = system: FKBP12^F36V-EWS/FLI; assay: Immunoblotting of EWS502 FKBP12^F36V-EWS/FLI; EWS/FLI^−/− cells; conditions: dTAG-13 10-5000 nM, compound 1 50-5000 nM, 24 hrs, EWS502 cells
Method: as §4

Row | SMILES | anti-proliferative effects / loss of cell viability (% DMSO control) [1] | anti-proliferative effects on control cells [2] | degradation of LACZ-FKBP12^F36V (immunoblot) [3] | degradation of FKBP12^F36V-KRAS^G12V (immunoblot) [4] | pERK levels (immunoblot) [5] | pAKT levels (immunoblot) [6] | anti-proliferative effects / loss of cell viability (% DMSO control) [7] | loss of cell transformation (3D-spheroids, % DMSO control) [8] | anti-proliferative effects / loss of cell viability (% DMSO control) [9] | anti-proliferative effects on LACZ-FKBP12^F36V control clone [10] | degradation of FKBP12^F36V-KRAS^G12V in 293T^WT cells (immunoblot) [11] | degradation of FKBP12^F36V-KRAS^G12V in 293T^VHL−/− cells (immunoblot) [12] | anti-proliferative effects on LACZ-FKBP12^F36V control clone [13] | effects on cell transformation of LACZ-FKBP12^F36V control clone [14] | degradation of FKBP12^F36V-GFP (immunoblot) [15] | degradation of FKBP12^F36V-EWS/FLI (immunoblot) [16]
1 | CC[C@H](C(=O)N1CCCC[C@H]1C(=O)O[C@H](CCc1ccc(OC)c(OC)c1)c1ccccc1OCC(=O)NCCOCCOCCOCC(=O)N[C@H](C(=O)N1C[C@H](O)C[C@H]1C(=O)NCc1ccc(-c2scnc2C)cc1)C(C)(C)C)c1cc(OC)c(OC)c(OC)c1 [dTAG-12] | Effective loss of viability; also recorded: potent anti-proliferative effects | Limited anti-proliferative effects | – | – | – | – | – | – | – | – | – | – | – | – | – | –
2 | CC[C@H](C(=O)N1CCCC[C@H]1C(=O)O[C@H](CCc1ccc(OC)c(OC)c1)c1ccccc1OCC(=O)NCCCCCCOc1cccc2c1C(=O)N(C1CCC(=O)N(C)C1=O)C2=O)c1cc(OC)c(OC)c(OC)c1 (stereo partly drawn) [Compound 5] | – | – | Lack of degradation; also recorded: no effect | Lack of degradation; also recorded: no effect | no effect | no effect | little to no loss of viability; also recorded: little to no toxicity | little to no loss of viability; also recorded: limited toxicity at high doses | – | – | – | – | – | – | – | –
3 | CC[C@H](C(=O)N1CCCC[C@H]1C(=O)O[C@H](CCc1ccc(OC)c(OC)c1)c1ccccc1OCC(=O)NCCCCCCC(=O)N[C@H](C(=O)N1C[C@@H](O)C[C@@H]1C(=O)N[C@@H](C)c1ccc(-c2scnc2C)cc1)C(C)(C)C)c1cc(OC)c(OC)c(OC)c1 [Compound 2, (R)-3-(3,4-dimethoxyphenyl)-1-(2-(2-((7-(((S)-1-((2R,4S)-4-hydroxy-2-(((S)-1-(4-(4-methylthiazol-5-yl)phenyl)ethyl)carbamoyl)pyrrolidin-1-yl)-3,3-dimethyl-1-oxobutan-2-yl)amino)-7-oxoheptyl)amino)-2-oxoethoxy)phenyl)propyl (S)-1-((S)-2-(3,4,5-trimethoxyphenyl)butanoyl)piperidine-2-carboxylate] | – | – | Lack of degradation; also recorded: no effect | Lack of degradation; also recorded: no effect | no effect | no effect | little to no loss of viability; also recorded: little to no toxicity | little to no loss of viability; also recorded: limited toxicity at high doses | – | – | – | – | – | – | – | –
4 | CC[C@H](C(=O)N1CCCC[C@H]1C(=O)O[C@H](CCc1ccc(OC)c(OC)c1)c1ccccc1OCC(=O)NCCOCCOCCOCC(=O)N[C@H](C(=O)N1C[C@H](O)C[C@H]1C(=O)N[C@@H](C)c1ccc(-c2scnc2C)cc1)C(C)(C)C)c1cc(OC)c(OC)c(OC)c1 [dTAG-63] | Effective loss of viability; also recorded: potent anti-proliferative effects | Limited anti-proliferative effects | – | – | – | – | – | – | Effective loss of viability; also recorded: potent anti-proliferative effects | limited effects | – | – | – | – | – | –
5 | CC[C@H](C(=O)N1CCCC[C@H]1C(=O)O[C@H](CCc1ccc(OC)c(OC)c1)c1ccccc1OCC(=O)NCCCCCCOc1cccc2c1C(=O)N(C1CCC(=O)NC1=O)C2=O)c1cc(OC)c(OC)c(OC)c1 (stereo partly drawn) [dTAG-13, reference compound] | Effective loss of viability; also recorded: potent anti-proliferative effects | – | rapid degradation; also recorded: potent degradation | potent degradation | pronounced diminished levels | pronounced diminished levels | Effective loss of viability; also recorded: potent anti-proliferative effects | Effective loss of viability; also recorded: potent loss of cell transformation | Effective loss of viability; also recorded: potent anti-proliferative effects | limited effects | potent degradation | Degradation of mutant KRAS was observed; also recorded: potent degradation | limited effects | limited effects | Degradation of GFP (control) is observed; also recorded: potent degradation | not
